pIC50: −log10 of the molar value. Counter-ions that a name gives are not always drawn.
Test system: KRas G12D-mediated phosphorylation of ERK
Assay: Inhibition of KRas G12D-mediated phosphorylation of ERK in AGS cells
Type: cell-based
Settings: Homo sapiens; AGS cells expressing G12D, 3 hours, phospho-ERK normalized to GAPDH
Experimental: Cells were plated in tissue culture treated 96 well plates at a density of 40,000 cells/well and allowed to attach for 12-14 hours. Diluted compounds were then added in a final concentration of 0.5% DMSO. After 3 hours, the medium was removed, 150 μL of 4.0% formaldehyde was added and the plates incubated at room temperature for 20 minutes. The plates were washed with PBS, and permeabilized with 150 μL of ice cold 100% methanol for 10 minutes. Non-specific antibody binding to the plates was blocked using 100 μL Licor blocking buffer (Li-Cor Biotechnology, Lincoln Nebr.) for 1 hour at room temperature.
The amount of phospho-ERK was determined using an antibody specific for the phosphorylated form of ERK and compared to the amount of GAPDH. Primary antibodies used for the detection were added as follows: Phospho-ERK (Cell Signaling cs-9101) diluted 1:500 and GAPDH (Millipore MAB374) diluted 1:5000 in Licor block+0.05% Tween 20. The plates were incubated for 2 hours at room temperature. The plates were washed with PBS+0.05% Tween 20.
Secondary antibodies used to visualize primary antibodies were added as follows: Anti-rabbit-680 diluted 1:1000 and Anti-mouse-800 diluted 1:1000 both in Licor block+0.05% TweeN2O, and were incubated for 1 hour at room temperature. The plates were washed with PBS+0.05% Tween 20. A 100 μL aliquot of PBS was added to each well and the plates were read on a Li-Cor Odyssey CLX plate reader.
The phospho-ERK (Thr202/Tyr204 signal was normalized to the GAPDH signal for each well and percent of DMSO control values were calculated. IC50 values were generated using a 4-parameter fit of the dose response curve

SMILES | pIC50
CN1CCC[C@H]1COc1nc(N2C[C@H]3CC[C@@H](C2)N3)c2cnc(-c3cccc4c3C(C)(C)CC4)c(F)c2n1 [Example 161, 4-((1R,5S)-3,8-diazabicyclo[3.2.1]octan-3-yl)-7-(3,3-dimethyl-2,3-dihydro-1H-inden-4-yl)-8-fluoro-2-(((S)-1-methylpyrrolidin-2-yl)methoxy)pyrido[4,3-d]pyrimidine bis(2,2,2-trifluoroacetate)] | < 4.78
Cn1nccc1COc1nc(N2C[C@H]3CC[C@@H](C2)N3)c2cnc(-c3cc(O)cc4ccccc34)c(F)c2n1 [Example 5, 4-(4-((1R,5S)-3,8-diazabicyclo[3.2.1]octan-3-yl)-8-fluoro-2-((1-methyl-1H-pyrazol-5-yl)methoxy)pyrido[4,3-d]pyrimidin-7-yl)naphthalen-2-ol] | 5.09
Fc1cccc(-c2ncc3c(N4C[C@H]5CC[C@@H](C4)N5)nc(OCC45CCCN4CCC5)nc3c2F)c1C(F)(F)F [Example 292, 4-((1R,5S)-3,8-diazabicyclo[3.2.1]octan-3-yl)-8-fluoro-7-(3-fluoro-2-(trifluoromethyl)phenyl)-2-((tetrahydro-1H-pyrrolizin-7a(5H)-yl)methoxy)pyrido[4,3-d]pyrimidine] | 5.77
CNc1nc(N2CC3CCC(C2)N3)c2cnc(-c3cc(O)cc4ccccc34)c(F)c2n1 [Example 183, 4-[4-(3,8-diazabicyclo[3.2.1]octan-3-yl)-8-fluoro-2-(methylamino)pyrido[4,3-d]pyrimidin-7-yl]naphthalen-2-ol] | 5.28
CC1(N)CN(c2nc(N3C[C@H]4CC[C@@H](C3)N4)c3cnc(-c4cc(O)cc5ccccc45)c(F)c3n2)C1 [Example 124, 4-(2-(3-amino-3-methylazetidin-1-yl)-4-((1R,5S)-3,8-diazabicyclo[3.2.1]octan-3-yl)-8-fluoropyrido[4,3-d]pyrimidin-7-yl)naphthalen-2-ol] | 4.96
O[C@@H]1C[C@@H]2CN(c3nc(OCCc4ccc(F)cn4)nc4c(F)c(-c5cccc6cccc(Cl)c56)ncc34)C[C@H]1N2 [Example 32, (1R,5R,6R)-3-(7-(8-chloronaphthalen-1-yl)-8-fluoro-2-(2-(5-fluoropyridin-2-yl)ethoxy)pyrido[4,3-d]pyrimidin-4-yl)-3,8-diazabicyclo[3.2.1]octan-6-ol] | < 4.30
CN1CCC[C@H]1COc1nc(N2CC3CCC(CO)(C2)N3)c2cnc(-c3cc(O)cc4ccccc34)c(F)c2n1 (stereo partly drawn) [Example 215, 4-(8-fluoro-4-(1-(hydroxymethyl)-3,8-diazabicyclo[3.2.1]octan-3-yl)-2-(((S)-1-methylpyrrolidin-2-yl)methoxy)pyrido[4,3-d]pyrimidin-7-yl)naphthalen-2-ol bis(2,2,2-trifluoroacetate)] | < 4.78
Fc1c(-c2cccc(Cl)c2C2CC2)ncc2c(N3C[C@H]4CC[C@@H](C3)N4)nc(OCC34CCCN3CCC4)nc12 [Example 322, 4-((1R,5S)-3,8-diazabicyclo[3.2.1]octan-3-yl)-7-(3-chloro-2-cyclopropylphenyl)-8-fluoro-2-((tetrahydro-1H-pyrrolizin-7a(5H)-yl)methoxy)pyrido[4,3-d]pyrimidine] | 6.18
Cn1ccnc1COc1nc(N2C[C@H]3CC[C@@H](C2)N3)c2cnc(-c3cc(O)cc4ccccc34)c(F)c2n1 [Example 104, 4-(4-((1R,5S)-3,8-diazabicyclo[3.2.1]octan-3-yl)-8-fluoro-2-((1-methyl-1H-imidazol-2-yl)methoxy)pyrido[4,3-d]pyrimidin-7-yl)naphthalen-2-ol] | < 4.78
OCc1cccc2cccc(-c3ncc4c(N5C[C@H]6CC[C@@H](C5)N6)nc(OCC56CCCN5CCC6)nc4c3F)c12 [Example 238, (8-(4-((1R,5S)-3,8-diazabicyclo[3.2.1]octan-3-yl)-8-fluoro-2-((tetrahydro-1H-pyrrolizin-7a(5H)-yl)methoxy)pyrido[4,3-d]pyrimidin-7-yl)naphthalen-1-yl)methanol] | 5.33
C[C@H]1C[C@H]1c1ccccc1-c1ncc2c(N3C[C@H]4CC[C@@H](C3)N4)nc(OCC34CCCN3CCC4)nc2c1F [Example 287, 4-((1R,5S)-3,8-diazabicyclo[3.2.1]octan-3-yl)-8-fluoro-2-((hexahydro-1H-pyrrolizin-7a-yl)methoxy)-7-(2-((1R,2S)-2-methylcyclopropyl)phenyl)pyrido[4,3-d]pyrimidine] | 5.09
CC(C)c1c(F)cc(O)cc1-c1ncc2c(N3C[C@H]4CC[C@@H](C3)N4)nc(OC[C@@]34CCCN3C[C@H](F)C4)nc2c1F [Example 290, 3-(4-((1R,5S)-3,8-diazabicyclo[3.2.1]octan-3-yl)-8-fluoro-2-(((2R,7aS)-2-fluorotetrahydro-1H-pyrrolizin-7a(5H)-yl)methoxy)pyrido[4,3-d]pyrimidin-7-yl)-5-fluoro-4-isopropylphenol] | 6.96
Cc1cc2[nH]ncc2c(-c2ncc3c(N4C[C@H]5CC[C@@H](C4)N5)nc(OCC45CCCN4CCC5)nc3c2F)c1C [Example 249, 4-((1R,5S)-3,8-diazabicyclo[3.2.1]octan-3-yl)-7-(5,6-dimethyl-1H-indazol-4-yl)-8-fluoro-2-((hexahydro-1H-pyrrolizin-7a-yl)methoxy)pyrido[4,3-d]pyrimidine] | 5.11
CCn1ccc2cccc(-c3ncc4c(N5C[C@H]6CC[C@@H](C5)N6)nc(OCC56CCCN5CCC6)nc4c3F)c21 [Example 427, 4-((1R,5S)-3,8-diazabicyclo[3.2.1]octan-3-yl)-7-(1-ethyl-1H-indol-7-yl)-8-fluoro-2-((hexahydro-1H-pyrrolizin-7a-yl)methoxy)pyrido[4,3-d]pyrimidine] | 5.70
C#Cc1cccc2cc(O)cc(-c3ncc4c(N5C[C@H]6CC[C@@H](C5)N6)ncnc4c3F)c12 [Example 244, 4-(4-((1R,5S)-3,8-diazabicyclo[3.2.1]octan-3-yl)-8-fluoropyrido[4,3-d]pyrimidin-7-yl)-5-ethynylnaphthalen-2-ol] | 6.12
CN1CCC[C@H]1COc1nc(N2C[C@H]3CC[C@@H](C2)N3)c2cnc(-c3cc(O)cc4ccccc34)c(Cl)c2n1 [Example 191, 4-(4-((1R,5S)-3,8-diazabicyclo[3.2.1]octan-3-yl)-8-chloro-2-(((S)-1-methylpyrrolidin-2-yl)methoxy)pyrido[4,3-d]pyrimidin-7-yl)naphthalen-2-ol] | 5.30
CC(C)c1c(Cl)cccc1-c1ncc2c(N3C[C@H]4CC[C@@H](C3)N4)nc(OCC34CCCN3CCC4)nc2c1F [Example 298, 4-((1R,5S)-3,8-diazabicyclo[3.2.1]octan-3-yl)-7-(3-chloro-2-isopropylphenyl)-8-fluoro-2-((hexahydro-1H-pyrrolizin-7a-yl)methoxy)pyrido[4,3-d]pyrimidine] | 5.91
Fc1c(-c2ccccc2OC(F)(F)F)ncc2c(N3C[C@H]4CC[C@@H](C3)N4)nc(OCC34CCCN3CCC4)nc12 [Example 229, 4-((1R,5S)-3,8-diazabicyclo[3.2.1]octan-3-yl)-8-fluoro-2-((tetrahydro-1H-pyrrolizin-7a(5H)-yl)methoxy)-7-(2-(trifluoromethoxy)phenyl)pyrido[4,3-d]pyrimidine bis-hydrochloride] | 4.95
Fc1c(-c2cccc3cccc(Cl)c23)ncc2c(N3C[C@H]4CC[C@@H](C3)N4)nc(OCCCN3C[C@@H]4C[C@H]3CO4)nc12 [Example 103, (1S,4S)-5-(3-((4-((1R,5S)-3,8-diazabicyclo[3.2.1]octan-3-yl)-7-(8-chloronaphthalen-1-yl)-8-fluoropyrido[4,3-d]pyrimidin-2-yl)oxy)propyl)-2-oxa-5-azabicyclo[2.2.1]heptane] | < 4.78
